According to US20180298024A1, “CORTISTATIN ANALOGS AND USES THEREOF” (President and Fellows of Harvard College, priority 2015, published 2018):
Several values for one entry are separate records, joined by “and”; a condition that tells them apart may be missing. Equal entries are not always repeated.

Legend:
[1] = target: T1, Dopamine Transporter (Homo sapiens, UniProt Q01959); assay: Panlab assay, Dopamine Transporter; type: binding
T1 construct: Eurofins Panlabs
Protocol: (§1) Compounds A, B, C, and D were tested in Panlab assays to evaluate potential off-target activity using standard assay kits. Methods employed in these studies have been adapted from the scientific literature to maximize reliability and reproducibility.
IC50 values were determined by a non-linear, least squares regression analysis using MathIQ™ (ID Business Solutions Ltd., UK). […] Where presented, the Hill coefficient (nH), defining the slope of the competitive binding curve, was calculated using MathIQ™.

[2] = target: T2, CAMK2B (Homo sapiens, UniProt Q13554); assay: 33PanQinase radiometric kinase assay, CAMK2B; type: biochemical
T2 construct: purchased ProQinase; host or cells: Sf9 insect cells or E. coli
Protocol: (§2) A radiometric protein kinase assay (33PanQinase Activity Assay) was used for measuring the kinase activity of the 320 protein kinases. All kinase assays were performed in 96-well FlashPlates™ from Perkin Elmer (Boston, Mass., USA) in a 50 μl reaction volume. The reaction cocktail was pipetted in 4 steps in the following order: • 1. 10 μl of non-radioactive ATP solution (in H2O) • 2. 25 μl of assay buffer/[γ-33P]-ATP mixture • 3. 5 μl of test sample in 10% DMSO • 4. 10 μl of enzyme/substrate mixture
(§3) All PKC assays (except the PKC-mu and the PKC-nu assay) additionally contained 1 mM CaCl2, 4 mM EDTA, 5 μg/ml phosphatidylserine and 1 μg/ml 1,2-dioleyl-glycerol.
(§4) The CAMKID, CAMK2A, CAMK2B, CAMK2D, CAMK4, CAMKK1, CAMKK2, DAPK2, EEF2K, MYLK, MYLK2 and MYLK3 assays additionally contained 1 μg/ml Calmodulin and 0.5 mM CaCl2). The PRKG1 and PRKG2 assays additionally contained 1 μM cGMP. The DNA-PK assay additionally contained 2.5 μg/ml DNA. The protein kinase reaction cocktails were incubated at 30° C. for 60 minutes. The reaction was stopped with 50 μl of 2% (v/v) H3PO4, plates were aspirated and washed two times with 200 μl 0.9% (w/v) NaCl. Incorporation of 33Pi (counting of “cpm”) was determined with a microplate scintillation counter (Microbeta, Wallac). All protein kinase assays were performed with a BeckmanCoulter Biomek 2000/SL robotic system.
(§5) All protein kinases provided by ProQinase were expressed in Sf9 insect cells or in E. coli as recombinant GST-fusion proteins or His-tagged proteins, either as full-length or enzymatically active fragments. All kinases were produced from human cDNAs and purified by either GSHaffinity chromatography or immobilized metal. Affinity tags were removed from a number of kinases during purification. […]
(§6) For each kinase, the median value of the cpm of three wells was defined as “low control” (n=3). This value reflects unspecific binding of radioactivity to the plate in the absence of a protein kinase but in the presence of the substrate. […] The residual activity (in %) for each compounds well was calculated by using the following formula: […]

[3] = target: T3, LTK (Homo sapiens, UniProt P29376); assay: 33PanQinase radiometric kinase assay, LTK; type: biochemical
T3 construct: purchased ProQinase; host or cells: Sf9 insect cells or E. coli
Protocol: as §2, §3
The CAMKID, CAMK2A, CAMK2B, CAMK2D, CAMK4, CAMKK1, CAMKK2, DAPK2, EEF2K, MYLK, MYLK2 and MYLK3 assays additionally contained 1 μg/ml Calmodulin and 0.5 mM CaCl2). The PRKG1 and PRKG2 assays additionally contained 1 μM cGMP. The DNA-PK assay additionally contained 2.5 μg/ml DNA. […] Incorporation of 33Pi (counting of “cpm”) was determined with a microplate scintillation counter (Microbeta, Wallac). […]
as §6

[4] = target: T4, Tachykinin NK1 (Homo sapiens, UniProt P25103); assay: Panlab assay, Tachykinin NK1; type: binding
T4 construct: Eurofins Panlabs
Protocol: as §1, with “reproducibility. Reference standards were run as an integral part of each assay to ensure the validity of the results obtained.” for “reproducibility.”
IC50 values were determined by a non-linear, least squares regression analysis using MathIQ™ (ID Business Solutions Ltd., UK). Where inhibition constants (Ki) are presented, the Ki values were calculated using the equation of Cheng and Prusoff (Cheng, Y., Prusoff, W. H., Biochem. Pharmacol. 22:3099-3108, 1973) using the observed IC50 of the tested compound, the concentration of radioligand employed in the assay, and the historical values for the KD of the ligand (obtained experimentally at Eurofins Panlabs, Inc.). Where presented, the Hill coefficient (nH), defining the slope of the competitive binding curve, was calculated using MathIQ™.

[5] = target: T5, MUSK (Homo sapiens, UniProt O15146); assay: 33PanQinase radiometric kinase assay, MUSK; type: biochemical
T5 construct: purchased ProQinase; host or cells: Sf9 insect cells or E. coli
T5 sequence (O15146 24-869): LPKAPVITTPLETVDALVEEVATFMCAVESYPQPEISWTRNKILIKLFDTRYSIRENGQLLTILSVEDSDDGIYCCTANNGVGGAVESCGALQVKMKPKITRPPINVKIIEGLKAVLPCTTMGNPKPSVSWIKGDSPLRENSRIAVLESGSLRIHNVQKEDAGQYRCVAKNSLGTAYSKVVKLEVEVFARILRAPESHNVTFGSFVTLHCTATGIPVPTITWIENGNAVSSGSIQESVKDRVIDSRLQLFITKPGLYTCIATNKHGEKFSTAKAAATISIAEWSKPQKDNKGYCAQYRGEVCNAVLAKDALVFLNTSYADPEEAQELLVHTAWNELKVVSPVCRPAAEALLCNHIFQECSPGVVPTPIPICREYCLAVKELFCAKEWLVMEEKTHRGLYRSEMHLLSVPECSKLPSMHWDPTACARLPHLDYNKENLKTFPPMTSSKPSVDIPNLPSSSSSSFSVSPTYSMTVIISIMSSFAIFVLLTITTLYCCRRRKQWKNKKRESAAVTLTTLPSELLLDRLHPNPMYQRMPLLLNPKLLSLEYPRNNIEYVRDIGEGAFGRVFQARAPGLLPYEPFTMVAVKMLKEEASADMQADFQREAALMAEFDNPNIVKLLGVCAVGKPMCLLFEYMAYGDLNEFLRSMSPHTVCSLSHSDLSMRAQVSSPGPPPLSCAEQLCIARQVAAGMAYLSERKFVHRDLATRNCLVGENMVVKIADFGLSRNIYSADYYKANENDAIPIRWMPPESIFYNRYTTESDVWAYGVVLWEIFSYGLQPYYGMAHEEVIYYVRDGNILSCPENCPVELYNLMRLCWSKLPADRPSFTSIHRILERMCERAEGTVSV
Protocol: as §2, §3, §4, §5, §6

T1 sequence (Q01959 whole entry): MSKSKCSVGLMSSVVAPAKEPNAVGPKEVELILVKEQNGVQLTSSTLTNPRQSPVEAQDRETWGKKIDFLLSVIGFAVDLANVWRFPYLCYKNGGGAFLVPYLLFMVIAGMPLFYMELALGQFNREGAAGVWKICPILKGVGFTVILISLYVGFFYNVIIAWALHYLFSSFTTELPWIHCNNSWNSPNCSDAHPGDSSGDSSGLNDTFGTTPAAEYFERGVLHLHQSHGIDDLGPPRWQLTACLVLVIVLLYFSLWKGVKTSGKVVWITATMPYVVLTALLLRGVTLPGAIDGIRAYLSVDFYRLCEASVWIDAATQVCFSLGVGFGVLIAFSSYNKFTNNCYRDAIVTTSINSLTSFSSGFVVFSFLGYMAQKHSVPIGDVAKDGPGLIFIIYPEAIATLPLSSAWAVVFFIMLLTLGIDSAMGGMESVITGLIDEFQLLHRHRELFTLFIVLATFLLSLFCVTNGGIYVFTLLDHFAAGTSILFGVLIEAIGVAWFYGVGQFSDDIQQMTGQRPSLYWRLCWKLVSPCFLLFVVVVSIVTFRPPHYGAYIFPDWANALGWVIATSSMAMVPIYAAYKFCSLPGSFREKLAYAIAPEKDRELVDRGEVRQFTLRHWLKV
T4 sequence (P25103 whole entry): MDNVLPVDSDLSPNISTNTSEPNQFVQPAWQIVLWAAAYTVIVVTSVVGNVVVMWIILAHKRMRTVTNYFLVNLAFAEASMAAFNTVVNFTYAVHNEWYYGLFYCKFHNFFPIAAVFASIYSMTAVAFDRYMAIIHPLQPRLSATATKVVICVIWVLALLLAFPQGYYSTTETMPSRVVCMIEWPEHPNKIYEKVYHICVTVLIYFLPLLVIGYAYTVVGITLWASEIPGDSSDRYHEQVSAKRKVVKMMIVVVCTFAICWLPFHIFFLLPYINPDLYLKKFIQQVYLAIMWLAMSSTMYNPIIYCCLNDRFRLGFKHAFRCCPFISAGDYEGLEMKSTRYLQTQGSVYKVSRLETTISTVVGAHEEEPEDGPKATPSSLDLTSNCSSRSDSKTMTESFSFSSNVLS
T3 sequence (P29376 17-864): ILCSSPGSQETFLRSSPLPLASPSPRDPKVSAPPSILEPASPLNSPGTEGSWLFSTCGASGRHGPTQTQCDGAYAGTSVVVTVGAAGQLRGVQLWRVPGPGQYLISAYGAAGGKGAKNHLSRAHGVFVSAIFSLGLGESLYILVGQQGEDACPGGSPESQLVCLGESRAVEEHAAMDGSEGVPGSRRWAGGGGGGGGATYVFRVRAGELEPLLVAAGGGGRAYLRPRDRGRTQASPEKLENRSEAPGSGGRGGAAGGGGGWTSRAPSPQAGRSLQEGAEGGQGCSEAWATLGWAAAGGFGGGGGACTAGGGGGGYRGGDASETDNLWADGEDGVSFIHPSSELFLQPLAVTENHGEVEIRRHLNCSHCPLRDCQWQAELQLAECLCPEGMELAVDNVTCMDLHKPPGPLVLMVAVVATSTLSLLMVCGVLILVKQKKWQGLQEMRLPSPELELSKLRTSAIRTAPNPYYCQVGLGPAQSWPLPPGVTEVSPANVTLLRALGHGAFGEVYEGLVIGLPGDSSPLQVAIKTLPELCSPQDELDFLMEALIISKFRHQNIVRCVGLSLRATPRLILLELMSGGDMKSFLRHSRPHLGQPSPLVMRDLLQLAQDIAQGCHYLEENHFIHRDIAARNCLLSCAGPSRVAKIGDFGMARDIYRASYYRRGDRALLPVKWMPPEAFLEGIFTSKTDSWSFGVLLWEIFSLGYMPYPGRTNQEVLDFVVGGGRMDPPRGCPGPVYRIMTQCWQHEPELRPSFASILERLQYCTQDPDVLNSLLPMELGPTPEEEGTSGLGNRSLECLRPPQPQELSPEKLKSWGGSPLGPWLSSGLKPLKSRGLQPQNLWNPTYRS

C[C@]12CC=C3C=C4CC[C@@H](O)C[C@]45CC[C@]3(O5)[C@@H]1CC[C@@H]2c1ccc2ccncc2c1 [Compound A, (3S,3aR,9R,10aR,12aS,12bR)-3-(isoquinolin-7-yl)-3a-methyl-1,2,3,3a,4,7,8,9,10,11,12,12b-dodecahydro-10a,12a-epoxybenzo[4,5]cyclohepta[1,2-e]inden-9-ol]
IC50 [1]: 4.9 µM
nH (Hill coefficient), Dopamine Transporter [1]: 0.97
Ki ([1]; Cheng and Prusoff): 3.89 µM
inhibition at 1 µM ([2]; 1 μM, 2 replicates, read-out: average percent inhibition of CAMK2B): > 50%
percent inhibition of CAMK2B, replicates ([2]; 1 μM, single replicates): 36% and 79%
inhibition of CAMK2B upon retesting ([2]; up to 10 μM): not inhibited
inhibition at 1 µM ([3]; 1 μM, 2 replicates, read-out: average percent inhibition of LTK): > 50%
inhibition of LTK upon retesting ([3]; up to 10 μM): not inhibited
IC50 [4]: 5.94 µM
nH (Hill coefficient), Tachykinin NK1 [4]: 1.01
Ki ([4]; Cheng and Prusoff): 4.3 µM
inhibition at 1 µM ([5]; 1 μM, 2 replicates, read-out: average percent inhibition of MUSK): > 50%
percent inhibition of MUSK, replicates ([5]; 1 μM, single replicates): 36% and 111%
inhibition of MUSK upon retesting ([5]; up to 10 μM): not inhibited
